The record followed here is patent US20040110287A1, “Multi-step method for the differentiation of insulin positive, glucose responsive cells” (ES Cell International Pte Ltd., priority 2002, published 2004).

This experiment deals with islet-like structures. The experiment is described as follows: Glucose-stimulated insulin release and insulin content of islet-like structures. The class given is cell-based. The following applies: 3 mM or 20 mM glucose, factor added to culture. As for the experimental part: After the complete differentiation protocol described in detail in Example 2, the islet-like structures were cultured in the presence of either 3 mM glucose or 20 mM glucose to assay for glucose-stimulated insulin release. Insulin release and total insulin content were measured using standard methods. Additionally, factors were added to the culture of islet-like structures.

For Sonic hedgehog, the “responsiveness of islet-like structures to high glucose (insulin release)” value is given as “increased the responsiveness”. The result for Desert hedgehog reads “increased the responsiveness”; that for leptin, “increased the responsiveness”.

`CC(C)(COP(=O)(O)OP(=O)(O)OC[C@H]1O[C@@H](n2cnc3c(N)ncnc32)[C@H](O)[C@@H]1OP(=O)(O)O)[C@@H](O)C(=O)NCCC(=O)NCCSC(=O)CC(=O)O` [malonyl CoA, reference compound]: the “responsiveness of islet-like structures to high glucose (insulin release)” value is reported as “increased the responsiveness”. With `NC(=O)c1cccnc1` [nicotinamide, reference compound] the entry was “increased the responsiveness”; with Indian hedgehog, “increased the responsiveness”; with exendin-4 [reference compound], “increased the responsiveness”.
